# Reference: ChEMBL document CHEMBL3885881, “DrugMatrix”
# Organism: Rattus norvegicus
# Assay: DrugMatrix - Regimen: Daily Repeat
# Assay type: toxicity, organism-based, Sprague-Dawley
# Design: regimen Daily Repeat, gender Male, age 6-8 weeks
# Details: in vivo, po, 100 mg/kg, route oral GAVAGE, […]; for ABSOLUTE BASOPHIL / ABSOLUTE EOSINOPHIL / ABSOLUTE LYMPHOCYTE / ABSOLUTE MONOCYTE / ABSOLUTE SEGMENTED NEUTROPHIL / BASOPHIL / EOSINOPHIL / ERYTHROCYTE COUNT / HEMATOCRIT / HEMOGLOBIN / LEUKOCYTE COUNT / LYMPHOCYTE / MEAN CORPUSCULAR HEMOGLOBIN / MEAN CORPUSCULAR HEMOGLOBIN CONCENTRATION / MEAN CORPUSCULAR VOLUME / MONOCYTE / NEUTROPHIL / NUCLEATED RED BLOOD CELLS / PLATELET COUNT: tissue Blood; for ALANINE AMINOTRANSFERASE / ALBUMIN / ALKALINE PHOSPHATASE / ASPARTATE AMINOTRANSFERASE / BLOOD UREA NITROGEN / CARBON DIOXIDE / CHLORIDE / CHOLESTEROL / CREATINE PHOSPHOKINASE / CREATININE / GLUCOSE / LACTATE DEHYDROGENASE / LIPASE / PHOSPHORUS / POTASSIUM / SODIUM / TOTAL BILIRUBIN / TOTAL PROTEIN / URIC ACID: tissue Plasma
# [1] = 72 h, dose level Low, time 3 day
# [2] = 120 h, dose level High, time 5 day
compound,measurement,setting,value
CC(C)(Oc1ccc(CCNC(=O)c2ccc(Cl)cc2)cc1)C(=O)O [BEZAFIBRATE],ABSOLUTE BASOPHIL,[1],0 CELLS/uL
same,ABSOLUTE EOSINOPHIL,[1],180.5 CELLS/uL
same,ABSOLUTE LYMPHOCYTE,[1],13739.67 CELLS/uL
same,ABSOLUTE MONOCYTE,[1],378 CELLS/uL
same,ABSOLUTE SEGMENTED NEUTROPHIL,[1],1401.83 CELLS/uL
same,BASOPHIL,[1],0%
same,EOSINOPHIL,[1],1.17%
same,ERYTHROCYTE COUNT,[1],5.45 x10E6/uL
same,HEMATOCRIT,[1],33.9%
same,HEMOGLOBIN,[1],13.37 G/DL
same,LEUKOCYTE COUNT,[1],15.7 x10E3/uL
same,LYMPHOCYTE,[1],87.33%
same,MEAN CORPUSCULAR HEMOGLOBIN,[1],24.55 pg
same,MEAN CORPUSCULAR HEMOGLOBIN CONCENTRATION,[1],39.42 G/DL
same,MEAN CORPUSCULAR VOLUME,[1],62.22 fL
same,MONOCYTE,[1],2.33%
same,NEUTROPHIL,[1],9.17%
same,NUCLEATED RED BLOOD CELLS,[1],0 /100WBC
same,PLATELET COUNT,[1],1134.83 x10E3/uL
same,ALANINE AMINOTRANSFERASE,[1],55.83 u/L
same,ALBUMIN,[1],4.3 G/DL
same,ALKALINE PHOSPHATASE,[1],373.17 u/L
same,ASPARTATE AMINOTRANSFERASE,[1],81 u/L
same,BLOOD UREA NITROGEN,[1],13.33 mg/dL
same,CARBON DIOXIDE,[1],28.33 mmol/L
same,CHLORIDE,[1],103.17 MEQ/L
same,CHOLESTEROL,[1],50.33 mg/dL
same,CREATINE PHOSPHOKINASE,[1],275.67 u/L
same,CREATININE,[1],0.14 mg/dL
same,GLUCOSE,[1],153.33 mg/dL
same,LACTATE DEHYDROGENASE,[1],111.33 u/L
same,LIPASE,[1],9.67 u/L
same,PHOSPHORUS,[1],10.52 mg/dL
same,POTASSIUM,[1],6.12 MEQ/L
same,SODIUM,[1],143.38 MEQ/L
same,TOTAL BILIRUBIN,[1],0.17 mg/dL
same,TOTAL PROTEIN,[1],5.68 G/DL
same,URIC ACID,[1],1.27 mg/dL
same,BASOPHIL,[2],0.3%
same,EOSINOPHIL,[2],0.42%
same,ERYTHROCYTE COUNT,[2],6.75 x10E6/uL
same,HEMATOCRIT,[2],45.06%
same,HEMOGLOBIN,[2],14.3 G/DL
same,LEUKOCYTE COUNT,[2],9.46 x10E3/uL
same,LYMPHOCYTE,[2],82.9%
same,MEAN CORPUSCULAR HEMOGLOBIN,[2],21.18 pg
same,MEAN CORPUSCULAR HEMOGLOBIN CONCENTRATION,[2],31.76 G/DL
same,MEAN CORPUSCULAR VOLUME,[2],66.76 fL
same,MONOCYTE,[2],2.08%
same,NEUTROPHIL,[2],12.9%
same,PLATELET COUNT,[2],1359.2 x10E3/uL
same,ALANINE AMINOTRANSFERASE,[2],30.4 u/L
same,ALBUMIN,[2],3.86 G/DL
same,ALKALINE PHOSPHATASE,[2],393.2 u/L
same,ASPARTATE AMINOTRANSFERASE,[2],76.8 u/L
same,BLOOD UREA NITROGEN,[2],8 mg/dL
same,CHLORIDE,[2],110.2 MEQ/L
same,CHOLESTEROL,[2],53.8 mg/dL
same,CREATINE PHOSPHOKINASE,[2],309.2 u/L
same,CREATININE,[2],0.58 mg/dL
same,GLUCOSE,[2],111.8 mg/dL
same,PHOSPHORUS,[2],13.26 mg/dL
same,POTASSIUM,[2],5.98 MEQ/L
same,SODIUM,[2],150.8 MEQ/L
same,TOTAL BILIRUBIN,[2],0.2 mg/dL
same,TOTAL PROTEIN,[2],5.94 G/DL
same,BASOPHIL,"dose level High, time 28 day",0.53%
same,EOSINOPHIL,"dose level High, time 28 day",0.56%
same,ERYTHROCYTE COUNT,"dose level High, time 28 day",7.67 x10E6/uL
same,HEMATOCRIT,"dose level High, time 28 day",46.81%
same,HEMOGLOBIN,"dose level High, time 28 day",15.51 G/DL
same,LEUKOCYTE COUNT,"dose level High, time 28 day",10.2 x10E3/uL
same,LYMPHOCYTE,"dose level High, time 28 day",83.76%
same,MEAN CORPUSCULAR HEMOGLOBIN,"dose level High, time 28 day",20.22 pg
same,MEAN CORPUSCULAR HEMOGLOBIN CONCENTRATION,"dose level High, time 28 day",33.13 G/DL
same,MEAN CORPUSCULAR VOLUME,"dose level High, time 28 day",61.05 fL
same,MONOCYTE,"dose level High, time 28 day",1.65%
same,NEUTROPHIL,"dose level High, time 28 day",12.36%
same,PLATELET COUNT,"dose level High, time 28 day",1339.5 x10E3/uL
same,ABSOLUTE BASOPHIL,"dose level Low, time 7 day",0 CELLS/uL
same,ABSOLUTE EOSINOPHIL,"dose level Low, time 7 day",36.5 CELLS/uL
same,ABSOLUTE LYMPHOCYTE,"dose level Low, time 7 day",7716 CELLS/uL
same,ABSOLUTE MONOCYTE,"dose level Low, time 7 day",109.33 CELLS/uL
same,ABSOLUTE SEGMENTED NEUTROPHIL,"dose level Low, time 7 day",821.5 CELLS/uL
same,BASOPHIL,"dose level Low, time 7 day",0%
same,EOSINOPHIL,"dose level Low, time 7 day",0.5%
same,ERYTHROCYTE COUNT,"dose level Low, time 7 day",5.31 x10E6/uL
same,HEMATOCRIT,"dose level Low, time 7 day",33.28%
same,HEMOGLOBIN,"dose level Low, time 7 day",13.1 G/DL
same,LEUKOCYTE COUNT,"dose level Low, time 7 day",8.68 x10E3/uL
same,LYMPHOCYTE,"dose level Low, time 7 day",88.67%
same,MEAN CORPUSCULAR HEMOGLOBIN,"dose level Low, time 7 day",24.67 pg
same,MEAN CORPUSCULAR HEMOGLOBIN CONCENTRATION,"dose level Low, time 7 day",39.37 G/DL
same,MEAN CORPUSCULAR VOLUME,"dose level Low, time 7 day",62.68 fL
same,MONOCYTE,"dose level Low, time 7 day",1.33%
same,NEUTROPHIL,"dose level Low, time 7 day",9.5%
same,NUCLEATED RED BLOOD CELLS,"dose level Low, time 7 day",0 /100WBC
same,PLATELET COUNT,"dose level Low, time 7 day",1167.33 x10E3/uL
same,ALANINE AMINOTRANSFERASE,"dose level High, time 28 day",33.6 u/L
same,ALBUMIN,"dose level High, time 28 day",4.04 G/DL
same,ALKALINE PHOSPHATASE,"dose level High, time 28 day",358.2 u/L
same,ASPARTATE AMINOTRANSFERASE,"dose level High, time 28 day",65.4 u/L
same,BLOOD UREA NITROGEN,"dose level High, time 28 day",15.6 mg/dL
same,CHLORIDE,"dose level High, time 28 day",108.6 MEQ/L
same,CHOLESTEROL,"dose level High, time 28 day",43.2 mg/dL
same,CREATINE PHOSPHOKINASE,"dose level High, time 28 day",130.9 u/L
same,CREATININE,"dose level High, time 28 day",0.51 mg/dL
same,GLUCOSE,"dose level High, time 28 day",147.9 mg/dL
same,PHOSPHORUS,"dose level High, time 28 day",11.62 mg/dL
same,POTASSIUM,"dose level High, time 28 day",6.83 MEQ/L
same,SODIUM,"dose level High, time 28 day",152.6 MEQ/L
same,TOTAL BILIRUBIN,"dose level High, time 28 day",0.2 mg/dL
same,TOTAL PROTEIN,"dose level High, time 28 day",6.41 G/DL
same,ALANINE AMINOTRANSFERASE,"dose level Low, time 7 day",52.17 u/L
same,ALBUMIN,"dose level Low, time 7 day",4.67 G/DL
same,ALKALINE PHOSPHATASE,"dose level Low, time 7 day",346.67 u/L
same,ASPARTATE AMINOTRANSFERASE,"dose level Low, time 7 day",68.17 u/L
same,BLOOD UREA NITROGEN,"dose level Low, time 7 day",17.67 mg/dL
same,CARBON DIOXIDE,"dose level Low, time 7 day",30.83 mmol/L
same,CHLORIDE,"dose level Low, time 7 day",102.83 MEQ/L
same,CHOLESTEROL,"dose level Low, time 7 day",57.83 mg/dL
same,CREATINE PHOSPHOKINASE,"dose level Low, time 7 day",307.17 u/L
same,CREATININE,"dose level Low, time 7 day",0.24 mg/dL
same,GLUCOSE,"dose level Low, time 7 day",145.67 mg/dL
same,LACTATE DEHYDROGENASE,"dose level Low, time 7 day",85.5 u/L
same,LIPASE,"dose level Low, time 7 day",9.33 u/L
same,PHOSPHORUS,"dose level Low, time 7 day",11.1 mg/dL
same,POTASSIUM,"dose level Low, time 7 day",5.85 MEQ/L
same,SODIUM,"dose level Low, time 7 day",143.98 MEQ/L
same,TOTAL BILIRUBIN,"dose level Low, time 7 day",0.1 mg/dL
same,TOTAL PROTEIN,"dose level Low, time 7 day",6.2 G/DL
same,URIC ACID,"dose level Low, time 7 day",0.62 mg/dL
